From US11660313B2, “Compositions and methods for application over skin” (Shiseido Company, Limited, priority 2015, dated 2023) come the findings set out here.

SMILES strings stand for the structures. In brackets after ≈: the same amount, converted by molar mass.

The nature of the data set: Solubility of triamcinolone acetonide in receptor fluid. The format is physicochemical. As to conditions: not told, aqueous with cosolvent or surfactant or cyclodextrin; PBS at pH 7.4 with 2 wt % hydroxypropyl-beta-cyclodextrin. The method, then: Receptor fluid preparation: Based on the results of solubility studies, a receptor fluid of phosphate buffered saline (PBS) at pH 7.4 with 2 wt % hydroxypropyl-beta-cyclodextrin (HPBCD) was chosen. […] The preparation and degassing of the receptor fluid was prepared at an appropriate pH and degassing was carried out by filtering the receptor fluid through a ZapCap CR 0.2 μm membrane while pulling vacuum.

For `CC1(C)O[C@@H]2C[C@H]3[C@@H]4CCC5=CC(=O)C=C[C@]5(C)[C@@]4(F)[C@@H](O)C[C@]3(C)[C@]2(C(=O)CO)O1` [triamcinolone acetonide], the solubility was approximately 282 µg/mL (≈ 649 µM).
